Key:
[1] = cited from earlier work
human hepatocytes = experiment: Uptake of pitavastatin and eltrombopag in cryopreserved human hepatocytes (oil spin method), comeasurement, micro‐rate constant mechanistic model; format: in vitro ADME
Protocol: Human hepatocytes were obtained from BioIVT (Brussels, Belgium; lot number: LYB; 10 donor LiverPool (8 Caucasians, 1 African American, and 1 Hispanic) and thawed according to supplier guidelines in Leibovitz L15 medium. Hepatocytes were kept on ice prior to use and were used within 3 hours of defrosting.
Cells were separated using an oil spin method similar to the literature. ^11 , ^17 After separation, the tubes were frozen on dry ice and the bottom layer was cut off.
A dilution factor of 100 was used to scale from pmol/mL/1 × 10^5 cells to nmol/mL/1 × 10^6 cells.
Passive rate constants for movement into and out of the cell (k f.X and k bX, respectively) as well as uptake transporter‐mediated rate constants for association to the transporter (k aX) and dissociation (k dX) and translocation (k tX) from the transporter into the medium and cell, respectively. […] The sets of ODEs for all the models (models 1–4; Table 1 ) tested for structural identifiability and used for parameter estimation are included in the Supplemental Material .
Parameter estimation was conducted within Monolix 2018 R2 (Lixoft, Antony, France) for each concentration and experiment as an individual data set, where to ensure positivity, a log‐normal distribution was assumed for each parameter, with a proportional residual error model for the observations.
Hepatocyte Incubations. […] Eltrombopag was dissolved in DMSO to give 30 µmol/mL, then diluted 333-fold to 90 nmol/mL in Leibovitz L15 medium. […] Briefly, 0.5 mL microtubes (12049877, Thermo-Fisher Scientific, Gothenburg, Sweden) layered with 15 µL of 4 % cesium chloride onto which 140 µL of 8:2 silicone oil: mineral oil, with oil red O was added. Samples were taken by transferring 100 µL of hepatocyte suspension into the microtube and spun for 15 s in a Minispin centrifuge (Eppendorf, Horsholm, Denmark), during which time the hepatocytes passed through the oil into the cesium chloride bottom layer. The tubes were then frozen on dry ice and the bottom layer cut off once frozen into a 1 mL deep well plate (260252, Thermo-Fisher Scientific, Gothenburg, Sweden).
Sample Extraction. 50 µL of water suitable for UPLC (MilliQ ELGA water, Merck-Millipore, Solna, Sweden) and 150 µL of stop solution (50:50 MeOH:MeCN, containing 0.8 % formic acid and 4 pmol/mL 5,5-diethyl-1,3-diphenyl-2-iminobarbituric acid as internal standard) were added to the frozen samples of the cut-off tube bottoms. Samples were mixed on a plate shaker for 1 h and then stored at – 80 °C overnight. Prior to analysis, samples were defrosted and mixed for 30 min before centrifugation of the plates at 4000 g for 20 min at 4 °C. Samples were transferred to a conical bottomed 96 well plate for analysis (249944, Thermo-Fisher Scientific, Gothenburg, Sweden) and diluted 1:1 with MilliQ ELGA water.
Mechanistic Modeling. […] An estimate for the total amount of transporters (To) can be obtained during the mechanistic modeling process (9, 10), and therefore Tf can be replaced using the conservation law during parameter estimation:
Parameter estimation for all model were conducted within the Monolix suite 2018 R2 (Lixoft, Antony, France) where to ensure positivity, a log-normal distribution was assumed for each parameter in the candidate models, together with a proportional residual error model for the observations.

[2] = parameters: method as in earlier work; settings: eltrombopag; minimum value of FDA draft guidance when plasma protein binding ≥ 0.99; cited from earlier work
[3] = system: UDP‐glucuronosyltransferase (UGT)1A3 and 2B7 and cytochrome P450 (CYP)2C9; settings: inhibition by eltrombopag of UGT1A3, 2B7 and CYP2C9 (exception CYP1B1); cited from earlier work
[4] = eltrombopag only, single 75 mg, plasma
[5] = model 1, conditional mode (minimum‐maximum) for 1 × 10^6 cells
[6] = model 1 micro‐rate constants, conditional mode (minimum‐maximum) for 1 × 10^6 cells

CC1=NN(c2ccc(C)c(C)c2)C(=O)/C1=N\Nc1cccc(-c2cccc(C(=O)O)c2)c1O [eltrombopag, Eltrombopag]
AUC0−∞ (literature) [1, 4]: 145 (101–208) h•µg/mL
tmax (h) [1, 4]: 2.5 (2–4) h
Cmax ([1]; eltrombopag only, single 75 mg, plasma, mean (95% CI)): 10.9 (8.7–13.6) µg/mL
K a, absorption rate constant ([1]; eltrombopag, used for I in.max): 0.0084 min⁻¹
F a F g, fraction absorbed multiplied by the intestinal availability ([1]; eltrombopag): 0.5
parent in urine ([1]; eltrombopag): 0 parent in urine [ ^25 ]
V c.X, volume of the central compartment / volume of distribution ([1]; eltrombopag, plasma): 2940 [ ^5 ] mL
effect on transporter‐mediated uptake of pitavastatin (human hepatocytes; 30 nmol/mL eltrombopag, 15 minute preincubation, overcome at 10–100 nmol/mL pitavastatin): reduced
F T.X, fraction transported (human hepatocytes; CLup.X/(CLup.X+Pdif.X), Eq. 4): 0.12 (0.09–0.2)
DV = amount of measured pitavastatin and/or eltrombopag (human hepatocytes; ID 29, pitavastatin AMT 10 nmol at TIME 15, TIME 15.5 min (normalised to post eltrombopag incubation)): 1035.93 nmol
DV = amount of measured pitavastatin and/or eltrombopag (human hepatocytes; ID 29, pitavastatin AMT 10 nmol at TIME 15, TIME 16 min): 1126.83 nmol
DV = amount of measured pitavastatin and/or eltrombopag (human hepatocytes; ID 29, pitavastatin AMT 10 nmol at TIME 15, TIME 17 min): 1088.94 nmol
DV = amount of measured pitavastatin and/or eltrombopag (human hepatocytes; ID 29, pitavastatin AMT 10 nmol at TIME 15, TIME 20 min): 1007.88 nmol
DV = amount of measured pitavastatin and/or eltrombopag (human hepatocytes; ID 29, pitavastatin AMT 10 nmol at TIME 15, TIME 25 min): 1166.93 nmol
DV = amount of measured pitavastatin and/or eltrombopag (human hepatocytes; ID 29, pitavastatin AMT 10 nmol at TIME 15, TIME 45 min): 1002.58 nmol
DV = amount of measured pitavastatin and/or eltrombopag (human hepatocytes; ID 30, pitavastatin AMT 10 nmol at TIME 15, TIME 15.25 min): 729.81 nmol
DV = amount of measured pitavastatin and/or eltrombopag (human hepatocytes; ID 30, pitavastatin AMT 10 nmol at TIME 15, TIME 15.5 min): 682.02 nmol
DV = amount of measured pitavastatin and/or eltrombopag (human hepatocytes; ID 30, pitavastatin AMT 10 nmol at TIME 15, TIME 16 min): 633.62 nmol
DV = amount of measured pitavastatin and/or eltrombopag (human hepatocytes; ID 30, pitavastatin AMT 10 nmol at TIME 15, TIME 17 min): 618.74 nmol
DV = amount of measured pitavastatin and/or eltrombopag (human hepatocytes; ID 30, pitavastatin AMT 10 nmol at TIME 15, TIME 20 min): 608.21 nmol
DV = amount of measured pitavastatin and/or eltrombopag (human hepatocytes; ID 30, pitavastatin AMT 10 nmol at TIME 15, TIME 25 min): 683.69 nmol
DV = amount of measured pitavastatin and/or eltrombopag (human hepatocytes; ID 30, pitavastatin AMT 10 nmol at TIME 15, TIME 45 min): 599.94 nmol
DV = amount of measured pitavastatin and/or eltrombopag (human hepatocytes; ID 31, pitavastatin AMT 30 nmol at TIME 15, TIME 15.25 min): 1382.52 nmol
DV = amount of measured pitavastatin and/or eltrombopag (human hepatocytes; ID 31, pitavastatin AMT 30 nmol at TIME 15, TIME 15.5 min): 1329.86 nmol
DV = amount of measured pitavastatin and/or eltrombopag (human hepatocytes; ID 31, pitavastatin AMT 30 nmol at TIME 15, TIME 16 min): 1156.33 nmol
DV = amount of measured pitavastatin and/or eltrombopag (human hepatocytes; ID 31, pitavastatin AMT 30 nmol at TIME 15, TIME 17 min): 1204.59 nmol
DV = amount of measured pitavastatin and/or eltrombopag (human hepatocytes; ID 31, pitavastatin AMT 30 nmol at TIME 15, TIME 20 min): 1196.1 nmol
DV = amount of measured pitavastatin and/or eltrombopag (human hepatocytes; ID 31, pitavastatin AMT 30 nmol at TIME 15, TIME 25 min): 890.75 nmol
DV = amount of measured pitavastatin and/or eltrombopag (human hepatocytes; ID 31, pitavastatin AMT 30 nmol at TIME 15, TIME 45 min): 983.35 nmol
DV = amount of measured pitavastatin and/or eltrombopag (human hepatocytes; ID 32, pitavastatin AMT 30 nmol at TIME 15, TIME 15.25 min): 1189.57 nmol
DV = amount of measured pitavastatin and/or eltrombopag (human hepatocytes; ID 32, pitavastatin AMT 30 nmol at TIME 15, TIME 15.5 min): 1153.93 nmol
DV = amount of measured pitavastatin and/or eltrombopag (human hepatocytes; ID 32, pitavastatin AMT 30 nmol at TIME 15, TIME 16 min): 1218.64 nmol
DV = amount of measured pitavastatin and/or eltrombopag (human hepatocytes; ID 32, pitavastatin AMT 30 nmol at TIME 15, TIME 17 min): 1146.32 nmol
DV = amount of measured pitavastatin and/or eltrombopag (human hepatocytes; ID 32, pitavastatin AMT 30 nmol at TIME 15, TIME 20 min): 1061.43 nmol
DV = amount of measured pitavastatin and/or eltrombopag (human hepatocytes; ID 32, pitavastatin AMT 30 nmol at TIME 15, TIME 25 min): 1010.46 nmol
DV = amount of measured pitavastatin and/or eltrombopag (human hepatocytes; ID 32, pitavastatin AMT 30 nmol at TIME 15, TIME 45 min): 1102.17 nmol
DV = amount of measured pitavastatin and/or eltrombopag (human hepatocytes; ID 33, pitavastatin AMT 30 nmol at TIME 15, TIME 15.25 min): 668.8 nmol
DV = amount of measured pitavastatin and/or eltrombopag (human hepatocytes; ID 33, pitavastatin AMT 30 nmol at TIME 15, TIME 15.5 min): 715.76 nmol
DV = amount of measured pitavastatin and/or eltrombopag (human hepatocytes; ID 33, pitavastatin AMT 30 nmol at TIME 15, TIME 16 min): 633.41 nmol
DV = amount of measured pitavastatin and/or eltrombopag (human hepatocytes; ID 33, pitavastatin AMT 30 nmol at TIME 15, TIME 17 min): 623.34 nmol
DV = amount of measured pitavastatin and/or eltrombopag (human hepatocytes; ID 33, pitavastatin AMT 30 nmol at TIME 15, TIME 20 min): 652.6 nmol
DV = amount of measured pitavastatin and/or eltrombopag (human hepatocytes; ID 33, pitavastatin AMT 30 nmol at TIME 15, TIME 25 min): 543.53 nmol
DV = amount of measured pitavastatin and/or eltrombopag (human hepatocytes; ID 33, pitavastatin AMT 30 nmol at TIME 15, TIME 45 min): 574.79 nmol
DV = amount of measured pitavastatin and/or eltrombopag (human hepatocytes; ID 34, pitavastatin AMT 100 nmol at TIME 15, TIME 15.25 min): 1383.49 nmol
DV = amount of measured pitavastatin and/or eltrombopag (human hepatocytes; ID 34, pitavastatin AMT 100 nmol at TIME 15, TIME 15.5 min): 1026.05 nmol
DV = amount of measured pitavastatin and/or eltrombopag (human hepatocytes; ID 34, pitavastatin AMT 100 nmol at TIME 15, TIME 16 min): 1256.06 nmol
DV = amount of measured pitavastatin and/or eltrombopag (human hepatocytes; ID 34, pitavastatin AMT 100 nmol at TIME 15, TIME 17 min): 1131.42 nmol
DV = amount of measured pitavastatin and/or eltrombopag (human hepatocytes; ID 34, pitavastatin AMT 100 nmol at TIME 15, TIME 20 min): 983.13 nmol
DV = amount of measured pitavastatin and/or eltrombopag (human hepatocytes; ID 34, pitavastatin AMT 100 nmol at TIME 15, TIME 25 min): 1130.84 nmol
DV = amount of measured pitavastatin and/or eltrombopag (human hepatocytes; ID 34, pitavastatin AMT 100 nmol at TIME 15, TIME 45 min): 1000.32 nmol
DV = amount of measured pitavastatin and/or eltrombopag (human hepatocytes; ID 36, pitavastatin AMT 100 nmol at TIME 15, TIME 15.25 min): 470.72 nmol
DV = amount of measured pitavastatin and/or eltrombopag (human hepatocytes; ID 36, pitavastatin AMT 100 nmol at TIME 15, TIME 15.5 min): 453.1 nmol
DV = amount of measured pitavastatin and/or eltrombopag (human hepatocytes; ID 36, pitavastatin AMT 100 nmol at TIME 15, TIME 16 min): 430.66 nmol
DV = amount of measured pitavastatin and/or eltrombopag (human hepatocytes; ID 36, pitavastatin AMT 100 nmol at TIME 15, TIME 17 min): 384.81 nmol
DV = amount of measured pitavastatin and/or eltrombopag (human hepatocytes; ID 36, pitavastatin AMT 100 nmol at TIME 15, TIME 20 min): 459.69 nmol
DV = amount of measured pitavastatin and/or eltrombopag (human hepatocytes; ID 36, pitavastatin AMT 100 nmol at TIME 15, TIME 25 min): 410.46 nmol
DV = amount of measured pitavastatin and/or eltrombopag (human hepatocytes; ID 36, pitavastatin AMT 100 nmol at TIME 15, TIME 45 min): 416.81 nmol
transporter‐mediated clearance (V max.up.E.WB/K m.up.E.WB) (human hepatocytes; eltrombopag, whole body scaled): 1625 mL/min/liver
K m.up.X or K I.up.X (human hepatocytes; from micro‐rate constants, Eq. 7): 3,138 ng/mL
passive efflux clearance out of the cell (human hepatocytes; k bX scaled to a clearance): 1.3 (1.05–1.95) µL/min/1 × 10^6 cells
P dif.X (human hepatocytes; k fX scaled to a clearance): 52 (40–64) µL/min/1 × 10^6 cells
k bX, passive rate constant out of the cell (human hepatocytes; [5]): 0.43 (0.35–0.65) /min
k fX, passive rate constant into the cell (human hepatocytes; [5]): 0.05 (0.04–0.06) /min
k aX, transporter association rate constant (human hepatocytes; [6]): 0.26 (0.23–0.31) /nmol/min
k dX, transporter dissociation rate constant (human hepatocytes; [6]): 1.57 (1.42–2) /min
k tX, transporter translocation rate constant (human hepatocytes; [6]): 0.27 (0.24–0.32) /min
V max.up..X, maximum uptake velocity (human hepatocytes; scaled to whole liver, Eq. 6): 5.1 × 10^6 ng/min/liver
P def.X, passive diffusion out of the cell (human hepatocytes; scaled to whole liver, Eq. 9): 307 mL/min/liver
V max.up (human hepatocytes; transporter rate constants transformed, Eq. 6): 49 (28–116) pmol/min/1 × 10^6 cells
f u.pl, fraction unbound in the plasma set for static R value [2]: 0.01
IC50 [3]: 2 to 20 µM

From publication PMC7179958 (CPT: Pharmacometrics & Systems Pharmacology, 2020)
